# Results taken from patent US20100272680A1, “Piperidinyl Cyclic Amido Antiviral Agents” (priority 2009, published 2010).
# Key:
# [1] = test system: HCV Genotype 1A Replicon; test: Replicon assay, genotype 1a subgenomic replicon, luciferase readout; format: cell-based; conditions: Hepatitis C virus, 48 h, Table 3; luciferase activity after 48 hours
# Method: (§1) Compounds were assayed for activity against HCV using the genotype 1a and 1b subgenomic replicon model systems. Stable cell lines bearing the genotype 1a and 1b replicons were used for screening of compounds. Both replicons are bicistonic and contain the firefly luciferase gene. The ET cell line is stably transfected with RNA transcripts harboring a I389luc-ubi-neo/NS3-3′/ET replicon with firefly luciferase-ubiquitin-neomycin phosphotransferase fusion protein and EMCV-IRES driven NS3-5B polyprotein containing the cell culture adaptive mutations (E1202G; T12801; K1846T) (Krieger at al, 2001 and unpublished). The genotype 1a replicon is a stable cell line licensed from Apath LLC, modified to contain the firefly luciferase gene. The cells were grown in DMEM, supplemented with 10% fetal calf serum, 2 mM Glutamine, Penicillin (100 IU/mL)/Streptomycin (100 μg/mL), 1× nonessential amino acids, and 250-500 μg/mL G418 (“Geneticin”). They were all available through Life Technologies (Bethesda, Md.). The cells were plated at 0.5×10^4 cells/well in 384 well plates containing compounds. The final concentration of compounds ranged between 0.03 μM to 50 μm and the final DMSO concentration of 0.5-1%.
# (§2) Luciferase activity was measured 48 hours later by adding a Steady glo (Promega, Madison, Wis.). Percent inhibition of replication data was plotted relative to no compound control. Under the same condition, cytotoxicity of the compounds was determined using cell titer glo (Promega, Madison, Wis). IC50s were determined from a 10 point dose response curve using 3-4-fold serial dilution for each compound, which spans a concentration range >1000 fold. BioAssay determines the level of inhibition for each compound by normalizing cross-talk corrected plate values against the negative […] controls to determine Percent Inhibition:
# (§3) These normalized values are exported to EC50 where they are plotted against the molar compound concentrations using the standard four parameter logistic equation: […]
# (§4) Some EC50 measurements were repeated a second time and for both 1A and 1B genotypes after those reported in Table 2 for compounds 101-108 and the repeated data was reported in Table 3.
# [2] = test system: HCV Genotype 1B Replicon; test: Replicon assay, genotype 1b subgenomic replicon (ET cell line), luciferase readout; format: cell-based; conditions: Hepatitis C virus, 48 h, Table 3; luciferase activity after 48 hours
# Method: as §1, §2, §3, §4
smiles,measurement,setting,value
"C[C@H]1C[C@@H](N2CCOC2=O)CCN1C(=O)c1nc2c(C(F)(F)F)cc(-c3ccoc3)cn2c1Cl (racemic) [Compound 205, (±) cis-3-(1-{[3-chloro-6-(3-furanyl)-8-(trifluoromethyl)imidazo[1,2-a]pyridin-2-yl]carbonyl}-2-methyl-4-piperidinyl)-1,3-oxazolidin-2-one]",EC50,[1],1070 nM
same,EC50,[2],1760 nM
"C[C@@H]1C[C@@H](N2CCOC2=O)CCN1C(=O)c1nc2c(C(F)(F)F)cc(-c3ccoc3)cn2c1Cl (racemic) [Compound 206, (±) trans-3-(1-{[3-chloro-6-(3-furanyl)-8-(trifluoromethyl)imidazo[1,2-a]pyridin-2-yl]carbonyl}-2-methyl-4-piperidinyl)-1,3-oxazolidin-2-one]",EC50,[1],70 nM
same,EC50,[2],140 nM
"O=C(c1nc2c(C(F)(F)F)cc(-c3ccoc3)cn2c1Cl)N1CC[C@@H](N2CCOC2=O)[C@H](O)C1 (racemic) [Compound 212, (±) trans-3-(1-{[3-chloro-6-(3-furanyl)-8-(trifluoromethyl)imidazo[1,2-a]pyridin-2-yl]carbonyl}-3-hydroxy-4-piperidinyl)-1,3-oxazolidin-2-one]",EC50,[1],50 nM
same,EC50,[2],80 nM
"CC(C)Cc1cc(C(F)(F)F)c2nc(C(=O)N3CC[C@H](N4CCOC4=O)[C@@H](O)C3)c(Cl)n2c1 (racemic) [Compound 215, (±) trans-3-(1-{[3-chloro-6-(2-methylpropyl)-8-(trifluoromethyl)imidazo[1,2-a]pyridin-2-yl]carbonyl}-3-hydroxy-4-piperidinyl)-1,3-oxazolidin-2-one]",EC50,[1],90 nM
same,EC50,[2],350 nM
"O=C(c1nc2c(C(F)(F)F)cc(Br)cn2c1Cl)N1CC[C@H](N2CCOC2=O)[C@@H](O)C1 (racemic) [Compound 219, (±) trans-3-(1-{[6-bromo-3-chloro-8-(trifluoromethyl)imidazo[1,2-a]pyridin-2-yl]carbonyl}-3-hydroxy-4-piperidinyl)-1,3-oxazolidin-2-one]",EC50,[1],150 nM
same,EC50,[2],580 nM
"O=C(c1nc2c(C(F)(F)F)cc(Br)cn2c1Cl)N1CC[C@H](N2C(=O)COC2=O)[C@@H](O)C1 (racemic) [Compound 222, (±) trans-3-(1-{[6-bromo-3-chloro-8-(trifluoromethyl)imidazo[1,2-a]pyridin-2-yl]carbonyl}-3-hydroxy-4-piperidinyl)-1,3-oxazolidine-2,4-dione]",EC50,[1],940 nM
same,EC50,[2],20 nM
"O=C(c1nc2c(C(F)(F)F)cc(-c3ccoc3)cn2c1Cl)N1CC[C@H](N2C(=O)COC2=O)[C@@H](O)C1 (racemic) [Compound 223, (±) trans-3-(1-{[3-chloro-6-(3-furanyl)-8-(trifluoromethyl)imidazo[1,2-a]pyridin-2-yl]carbonyl}-3-hydroxy-4-piperidinyl)-1,3-oxazolidine-2,4-dione]",EC50,[1],1580 nM
same,EC50,[2],810 nM
"O=C(c1nc2c(C(F)(F)F)cc(C3CC3)cn2c1Cl)N1CC[C@H](N2C(=O)COC2=O)[C@@H](O)C1 (racemic) [Compound 224, (±) trans-3-(1-{[3-chloro-6-cyclopropyl-8-(trifluoromethyl)imidazo[1,2-a]pyridin-2-yl]carbonyl}-3-hydroxy-4-piperidinyl)-1,3-oxazolidine-2,4-dione]",EC50,[1],1430 nM
same,EC50,[2],210 nM
"O=C(c1nc2c(C(F)(F)F)cc(C3CC3)cn2c1Cl)N1CC[C@H](N2CCCC2=O)[C@@H](O)C1 (racemic) [Compound 225, (±) trans-1-(1-{[3-chloro-6-cyclopropyl-8-(trifluoromethyl)imidazo[1,2-a]pyridin-2-yl]carbonyl}-3-hydroxy-4-piperidinyl)-2-pyrrolidinone]",EC50,[1],480 nM
same,EC50,[2],150 nM
"O=C(c1nc2c(C(F)(F)F)cc(Br)cn2c1Cl)N1CC[C@H](N2CCCC2=O)[C@@H](O)C1 (racemic) [Compound 226, (±) trans-1-(1-{[6-bromo-3-chloro-8-(trifluoromethyl)imidazo[1,2-a]pyridin-2-yl]carbonyl}-3-hydroxy-4-piperidinyl)-2-pyrrolidinone]",EC50,[1],2260 nM
same,EC50,[2],1450 nM
"O=C(c1nc2c(C(F)(F)F)cc(-c3ccoc3)cn2c1Cl)N1CC[C@H](N2CCCC2=O)[C@@H](O)C1 (racemic) [Compound 227, (±) trans-1-(1-{[3-chloro-6-(3-furanyl)-8-(trifluoromethyl)imidazo[1,2-a]pyridin-2-yl]carbonyl}-3-hydroxy-4-piperidinyl)-2-pyrrolidinone]",EC50,[1],690 nM
same,EC50,[2],340 nM
"O=C(c1nc2c(C(F)(F)F)cc(C3CC3)cn2c1Cl)N1CC[C@H](N2CCCC2=O)[C@H](O)C1 (racemic) [Compound 228, (±) cis-1-(1-{[3-chloro-6-cyclopropyl-8-(trifluoromethyl)imidazo[1,2-a]pyridin-2-yl]carbonyl}-3-hydroxy-4-piperidinyl)-2-pyrrolidinone]",EC50,[1],250 nM
same,EC50,[2],90 nM
"O=C(c1nc2c(C(F)(F)F)cc(Br)cn2c1Cl)N1CC[C@H](N2CCCC2=O)[C@H](O)C1 (racemic) [Compound 229, (±) cis-1-(1-{[6-bromo-3-chloro-8-(trifluoromethyl)imidazo[1,2-a]pyridin-2-yl]carbonyl}-3-hydroxy-4-piperidinyl)-2-pyrrolidinone]",EC50,[1],960 nM
same,EC50,[2],350 nM
"O=C(c1nc2c(C(F)(F)F)cc(-c3ccoc3)cn2c1Cl)N1CC[C@H](N2CCCC2=O)[C@H](O)C1 (racemic) [Compound 230, (±) cis-1-(1-{[3-chloro-6-(3-furanyl)-8-(trifluoromethyl)imidazo[1,2-a]pyridin-2-yl]carbonyl}-3-hydroxy-4-piperidinyl)-2-pyrrolidinone]",EC50,[1],420 nM
same,EC50,[2],180 nM
"O=C(c1nc2c(C(F)(F)F)cc(C3CC3)cn2c1Cl)N1CC[C@H](N2CCOC2=O)[C@H](O)C1 (racemic) [Compound 231, (±) cis-3-(1-{[3-chloro-6-cyclopropyl-8-(trifluoromethyl)imidazo[1,2-a]pyridin-2-yl]carbonyl}-3-hydroxy-4-piperidinyl)-1,3-oxazolidin-2-one]",EC50,[1],20 nM
same,EC50,[2],30 nM
"O=C(c1nc2c(C(F)(F)F)cc(Br)cn2c1Cl)N1CC[C@H](N2CCOC2=O)[C@H](O)C1 (racemic) [Compound 233, (±) cis-3-(1-{[6-bromo-3-chloro-8-(trifluoromethyl)imidazo[1,2-a]pyridin-2-yl]carbonyl}-3-hydroxy-4-piperidinyl)-1,3-oxazolidin-2-one]",EC50,[1],110 nM
same,EC50,[2],180 nM
"CO[C@H]1CN(C(=O)c2nc3c(C(F)(F)F)cc(-c4ccoc4)cn3c2Cl)CC[C@@H]1N1CCOC1=O (racemic) [Compound 236, (±) trans-3-[1-{[3-chloro-6-(3-furanyl)-8-(trifluoromethyl)imidazo[1,2-a]pyridin-2-yl]carbonyl}-3-(methyloxy)-4-piperidinyl]-1,3-oxazolidin-2-one]",EC50,[1],≥ 5010 nM
same,EC50,[2],≥ 5010 nM
"O=C(c1nc2c(C(F)(F)F)cc(C3CC3)cn2c1Cl)N1CC[C@H](N2CCOC2=O)[C@H](O)C1 (single isomer, unassigned; enantiomer 1) [Compound 234, 3-((cis)-1-{[3-chloro-6-cyclopropyl-8-(trifluoromethyl)imidazo[1,2-a]pyridin-2-yl]carbonyl}-3-hydroxy-4-piperidinyl)-1,3-oxazolidin-2-one (Enantiomer 1)]",EC50,[2],50 nM
